A word on the IC50: it is the concentration at which inhibition is half-maximal. Higher therefore signals weaker potency.

SMILES strings stand for the structures.

One assay has as its system HeLa galactose cells. In words: Cell growth and proliferation assay of HeLa galactose cells (crystal violet). The format is cell-based. To be noted: 72 hours incubation, crystal violet staining, absorbance at 590 nm. As for the experimental part: The cervical tumor cell line HeLa (ATCC, CCL-2) was cultivated in DMEM medium (Invitrogen cat. no. 11971, 4.5 g/L high glucose) containing 10% fetal calf serum (Sigma cat. no. F9665) and 1% Penicillin/Streptomycin (Sigma cat. no. P0781) at 37° C. in 5% CO2. HeLa galactose cells (i.e. HeLa cells that grow in high concentrations of galactose) were generated from HeLa glucose cells (i.e. HeLa cells that grow in high concentrations of glucose) by gradually changing the amount of glucose in the media to zero glucose in the presence of galactose as a sugar source (50% galactose/50% glucose media for one week, then 75% galactose/25% glucose media for one week, to 100% galactose media in the third week). Galactose media (Invitrogen cat. no. 11966) was supplemented with 10 mM galactose (Sigma cat. no. G5388).
Cell Growth and Proliferation Assay of HeLa Galactose and Glucose Cells
HeLa galactose cells and HeLa glucose cells were seeded in 96 well plates (TPP, cat. no 92696) at 2000 and 1500 cells/well, respectively, in 100 μL of complete medium. After overnight incubation the cells were incubated for 72 hours in complete medium containing 0.001% DMSO or compounds (final concentration of DMSO 0.001%). After the medium was removed, cells were fixed and stained by adding 50 μL crystal violet staining (0.2% crystal violet (Sigma-Aldrich cat. no. C0775) in 50% methanol) per well. The plates were incubated for 1 hour at room temperature. Subsequently the stain was decanted and plates were washed 4 times with de-mineralized water. Plates were air-dried for 2 hours. The stain was dissolved by adding 100 μL buffer (0.1 M Tris pH 7.5, 0.2% SDS, 20% ethanol) per well and shaking the plates. Absorbance at 590 nm was measured using a SpectraMax® 250 plate reader (Molecular Devices). Antiproliferative/growth inhibition IC50s were calculated from concentration-response curves using GraphPad Prism software.
In turn, `COCC1CN(C(=O)Nc2nc(C)ns2)CC/C1=C/c1ccc(Cl)cc1F` (centres unmarked) [Example 130, (4Z)-4-[(4-chloro-2-fluoro-phenyl)methylene]-3-(methoxymethyl)-N-(3-methyl-1,2,4-thiadiazol-5-yl)piperidine-1-carboxamide] had an IC50 of 355 nM. Take `COCC1CN(C(=O)Nc2nc(C)ns2)CC/C1=C/c1ccc(Cl)cc1F` (centres unmarked) [Example 133]: the IC50 worked out at 100 nM.

Staying with this assay, now noted: Homo sapiens, HeLa, 72 h, 72 hours incubation, crystal violet staining, absorbance at 590 nm.
The molecule `O=C(Nc1ccncn1)N1CCC(Cc2ccc(Cl)cc2Cl)CC1` [Example 22, 4-[(2,4-dichlorophenyl)methyl]-N-pyrimidin-4-yl-piperidine-1-carboxamide] showed an IC50 of 837 nM. On the same count and under the same terms, the result for `COc1ccc(CC2CCN(C(=O)Nc3nc(C)ns3)CC2)c(N)c1` [Example 23] reads 356 nM; that for `Cc1nsc(NC(=O)N2CCC(Cc3ccc(OCC(C)C)cc3F)CC2)n1` [Example 31], 795 nM; that for `Cc1nsc(NC(=O)N2CCC(Cc3ccc(CN4CCOCC4)cc3)CC2)n1` [Example 34, N-(3-methyl-1,2,4-thiadiazol-5-yl)-4-[[4-(morpholinomethyl)phenyl]methyl]piperidine-1-carboxamide], 572 nM. The same measure, in the same setting: the result for `COC(=O)c1ccc(CC2CCN(C(=O)Nc3nc(C)ns3)CC2)c(F)c1` [Example 36] reads 540 nM; that for `Cc1nsc(NC(=O)N2CCC(Cc3ccc(C(N)=O)cc3F)CC2)n1` [Example 37, 4-[(4-carbamoyl-2-fluoro-phenyl)methyl]-N-(3-methyl-1,2,4-thiadiazol-5-yl)piperidine-1-carboxamide], 478 nM; that for `Cc1nsc(NC(=O)N2CCC(Cc3ccc(N4CCCC4)cc3)CC2)n1` [Example 42], 670 nM. On to `Cc1nsc(NC(=O)N2CCC(=Cc3ccc(N4CCCC4)cc3)CC2)n1` [Example 43], for which the IC50 worked out at 439 nM. `Cc1nsc(NC(=O)N2CCC(Cc3ccc(N4CCCC4)cc3F)CC2)n1` [Example 44] had an IC50 of 429 nM. Molecule `Cc1nsc(NC(=O)N2CCC(Cc3ccc(Cl)cn3)CC2)n1` [Example 61] displayed an IC50 of 516 nM.

For the molecule `Cc1nsc(NC(=O)N2CCC(Oc3ccc(F)cc3)CC2)n1` [Example 73], the concentration for half-maximal inhibition (IC50) was determined as 465 nM.

`NC(=O)Cc1nsc(NC(=O)N2CCC(=Cc3ccc(Cl)cc3F)CC2)n1` [Example 81, N-[3-(2-amino-2-oxo-ethyl)-1,2,4-thiadiazol-5-yl]-4-[(4-chloro-2-fluoro-phenyl)methylene]piperidine-1-carboxamide] yielded an IC50 of 888 nM. `Cc1nsc(NC(=O)N2CCC(=Cc3ccc(C=O)cc3F)CC2)n1` [Example 88, 4-[(2-fluoro-4-formyl-phenyl)methylene]-N-(3-methyl-1,2,4-thiadiazol-5-yl)piperidine-1-carboxamide] registered an IC50 of 418 nM.

As for `Cc1nsc(NC(=O)N2CCC(=Cc3ccc(CN(C)CCO)cc3F)CC2)n1` [Example 90, 4-[[2-fluoro-4-[[2-hydroxyethyl(methyl)amino]methyl]phenyl]methylene]-N-(3-methyl-1,2,4-thiadiazol-5-yl)piperidine-1-carboxamide], it took 693 nM to reach half-maximal inhibition (IC50). The molecule `Cc1nsc(NC(=O)N2CCC(=Cc3ccc(CNCCCN4CCOCC4)cc3F)CC2)n1` [Example 91] yielded an IC50 of 492 nM. With `Cc1nsc(NC(=O)N2CCC(=Cc3c(F)cc(O)cc3F)CC2)n1` [Example 99, 4-[(2,6-difluoro-4-hydroxy-phenyl)methylene]-N-(3-methyl-1,2,4-thiadiazol-5-yl)piperidine-1-carboxamide], the IC50 amounted to 307 nM. Take `CC(=C1CCN(C(=O)Nc2nc(C)ns2)CC1)c1ccc(Cl)cc1F` [Example 104]: the IC50 came out at 642 nM. On to `Cc1nsc(NC(=O)N2CCC(C(C)c3ccc(Cl)cc3F)CC2)n1` (centres unmarked) [Example 105], for which the IC50 stood at 482 nM. Still for that read-out and setting: then `Cc1nsc(NC(=O)N2CCC(=Cc3ccc(Cl)cc3F)C(F)C2)n1` (centres unmarked) [Example 106], with 467 nM. As for `Cc1nsc(NC(=O)N2CCC(=Cc3ccc(OCCCO)cc3F)CC2)n1` [Example 107, 4-[[2-fluoro-4-(3-hydroxypropoxy)phenyl]methylene]-N-(3-methyl-1,2,4-thiadiazol-5-yl)piperidine-1-carboxamide], the IC50 is 389 nM. In turn, `Cc1nsc(NC(=O)N2CCC(=Cc3ccc(OCCCN)cc3F)CC2)n1` [Example 111] registered an IC50 of 514 nM. Regarding `Cc1nsc(NC(=O)N2CCC(=Cc3ccc(N)cc3F)CC2)n1` [Example 119, 4-[(4-amino-2-fluoro-phenyl)methylene]-N-(3-methyl-1,2,4-thiadiazol-5-yl)piperidine-1-carboxamide], inhibition was half-maximal at 159 nM (IC50).

The molecule `Cc1nsc(NC(=O)N2CCC(=Cc3ccc(N(C)CCN)cc3F)CC2)n1` [Example 122, 4-[[4-[2-aminoethyl(methyl)amino]-2-fluoro-phenyl]methylene]-N-(3-methyl-1,2,4-thiadiazol-5-yl)piperidine-1-carboxamide] displayed an IC50 of 182 nM. Still for that read-out and setting: the result for `CC(=O)NCCN(C)c1ccc(C=C2CCN(C(=O)Nc3nc(C)ns3)CC2)c(F)c1` [Example 123, 4-[[4-[2-acetamidoethyl(methyl)amino]-2-fluoro-phenyl]methylene]-N-(3-methyl-1,2,4-thiadiazol-5-yl)piperidine-1-carboxamide] reads 245 nM; that for `Cc1nsc(NC(=O)N2CCC(=Cc3ccc(N(C)CCCN)cc3F)CC2)n1` [Example 124], 70 nM; that for `Cc1nsc(NC(=O)N2CCCC(=Cc3ccc(N(C)C)cc3F)CC2)n1` [Example 125], 63 nM. On to `Cc1nsc(NC(=O)N2CCCC(Cc3ccc(N(C)C)cc3F)CC2)n1` (centres unmarked) [Example 126], for which half-maximal inhibition (IC50) was put at 68 nM. Turning to `Nc1cc(NC(=O)N2CCC(=Cc3ccc(Cl)cc3F)CC2)ccn1` [Example 131], half-maximal inhibition (IC50) required 264 nM. Molecule `Cc1cc(NC(=O)N2CCC(=Cc3ccc(N(C)C)cc3F)CC2)ccn1` [Example 132] returned an IC50 of 76 nM. On the same count and under the same terms, then `COCCC1CN(C(=O)Nc2nc(C)ns2)CC/C1=C/c1ccc(Cl)cc1F` (centres unmarked) [Example 134, (4Z)-4-[(4-chloro-2-fluoro-phenyl)methylene]-3-(2-methoxyethyl)-N-(3-methyl-1,2,4-thiadiazol-5-yl)piperidine-1-carboxamide], with 449 nM; and `COCCC1CN(C(=O)Nc2nc(C)ns2)CC/C1=C\c1ccc(Cl)cc1F` (centres unmarked) [Example 135, (4E)-4-[(4-chloro-2-fluoro-phenyl)methylene]-3-(2-methoxyethyl)-N-(3-methyl-1,2,4-thiadiazol-5-yl)piperidine-1-carboxamide], with 636 nM. Take `Cc1cc(NC(=O)N2CCC(=Cc3ccc(Cl)cc3F)CC2)ncn1` [Example 136]: the IC50 worked out at 81 nM. `Cc1nsc(NC(=O)N2CCC(C(=O)c3ccc(C(F)(F)F)cc3F)CC2)n1` [Example 142, 4-[2-fluoro-4-(trifluoromethyl)benzoyl]-N-(3-methyl-1,2,4-thiadiazol-5-yl)piperidine-1-carboxamide] showed an IC50 of 86 nM.

For the molecule `Cc1nsc(NC(=O)N2CCC(=Cc3c(F)cc(NC4CCOC4)cc3F)CC2)n1` (centres unmarked) [Example 150], it took 124 nM to reach half-maximal inhibition (IC50). In the case of `Cc1nsc(NC(=O)N2CCC(C(=O)c3ccc(N(C)C)cc3F)CC2)n1` [Example 155, 4-[4-(dimethylamino)-2-fluoro-benzoyl]-N-(3-methyl-1,2,4-thiadiazol-5-yl)piperidine-1-carboxamide], half-maximal inhibition (IC50) was put at 149 nM. `Cc1cc(NC(=O)N2CCC(C(=O)c3ccc(N(C)C)cc3F)CC2)ccn1` [Example 156] showed an IC50 of 193 nM.

For the molecule `CCN(CC)c1cc(F)c(C=C2CCN(C(=O)Nc3nc(C)ns3)CC2)c(F)c1` [Example 159], the IC50 stood at 215 nM. `Cc1nsc(NC(=O)N2CCN(Cc3ccc(Cl)cc3F)CC(O)C2)n1` (centres unmarked) [Example 162] came in with a half-inhibitory concentration (IC50) of 162 nM. Still for that read-out and setting: then `Cc1nsc(NC(=O)N2CCC(=Cc3ccc(N(C)CCCCN)cc3F)CC2)n1` [Example 163], with 293 nM; and `Cc1cc(NC(=O)N2CCC(Cc3ccc(Cl)cc3F)CC2)cnn1` [Example 165], with 383 nM. `CNc1nsc(NC(=O)N2CCC(Cc3ccc(Cl)cc3F)CC2)n1` [Example 166, 4-[(4-chloro-2-fluoro-phenyl)methyl]-N-[3-(methylamino)-1,2,4-thiadiazol-5-yl]piperidine-1-carboxamide]: half-maximal inhibition (IC50) was put at 407 nM. The same measure, in the same setting: then `Cc1nsc(NC(=O)N2CCC(Cc3c(F)cc(Cl)cc3F)CC2(C)C)n1` (centres unmarked) [Example 167], with 500 nM. `Cc1nsc(NC(=O)N2CC/C(=C\c3c(F)cc(Cl)cc3F)CC2(C)C)n1` [Example 168] returned an IC50 of 280 nM. The same measure, in the same setting: the result for `Cc1nsc(NC(=O)N2CC/C(=C/c3c(F)cc(Cl)cc3F)CC2(C)C)n1` [Example 169] reads 432 nM; that for `Cc1nsc(NC(=O)N2CCC(=Cc3ccc(C#CCO)cc3F)CC2)n1` [Example 170, 4-[[2-fluoro-4-(3-hydroxyprop-1-ynyl)phenyl]methylene]-N-(3-methyl-1,2,4-thiadiazol-5-yl)piperidine-1-carboxamide], 415 nM.

(Values after patent US20190142810A1, “MITOCHONDRIAL INHIBITORS FOR THE TREATMENT OF PROLIFERATION DISORDERS” (Basilea Pharmaceutica International AG, priority 2016, published 2019).)
